In patent US20220396565A1 (Hoffmann-La Roche Inc., priority 2020, published 2022):
Structures can show the parent of a compound that is named as a salt.

test system: Acinetobacter baumannii ATCC17961; assay: Antimicrobial susceptibility testing: 90% growth inhibitory concentration (IC90) determination, Iso-Sensitest broth; type: cell-based; settings: Acinetobacter baumannii, ATCC17961, 90% growth inhibitory concentration, Acinetobacter baumannii ATCC17961, Iso-Sensitest broth; read-out: ATCC 17961 IC90
Method in brief: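 Growth at OD600 was monitored every 20 min for 16 h at 35±2 °C, with bacteria inoculated at ~5×10^(5) CFU/ml into Iso-Sensitest medium. Compounds were tested as 10-point twofold dilutions (e.g. 10–0.02 μM final). The 90% inhibitory concentration comes from the log-phase growth.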

In order of rising IC90:
1. Cn1c(-c2ccc(OCF)c(F)c2F)cnc1C(=O)Nc1ccc(C(=O)N2CCN(C(=O)C3(O)CCNCC3)CC2)c(Cl)c1 [Example 162, N-[3-chloro-4-[4-(4-hydroxypiperidine-4-carbonyl)piperazine-1-carbonyl]phenyl]-5-[2,3-difluoro-4-(fluoromethoxy)phenyl]-1-methyl-imidazole-2-carboxamide formate]  30 nM
2. Cn1c(-c2ccc(OCF)c(F)c2F)cnc1C(=O)Nc1ccc(C(=O)N2CCN(C(=O)C[C@@H]3CCCN3)CC2)c(Cl)c1 [Example 157, N-[3-chloro-4-[4-[2-[(2S)-pyrrolidin-2-yl]acetyl]piperazine-1-carbonyl]phenyl]-5-[2,3-difluoro-4-(fluoromethoxy)phenyl]-1-methyl-imidazole-2-carboxamide formate]  30 nM
3. COc1ccc(-c2cnc(C(=O)Nc3ccc(C(=O)N4CCN(C(=O)CN)CC4)c(Cl)c3)n2C)c(F)c1F [Example 149, N-[4-[4-(2-aminoacetyl)piperazine-1-carbonyl]-3-chloro-phenyl]-5-(2,3-difluoro-4 methoxy-phenyl)-1-methyl-imidazole-2-carboxamide formate]  30 nM
4. COc1ccc(-c2cnc(C(=O)Nc3ccc(C(=O)N4CCN(C(=O)CCCCN)CC4)c(Cl)c3)n2C)c(F)c1F [Example 124, N-[4-[4-(5-aminopentanoyl)piperazine-1-carbonyl]-3-chloro-phenyl]-5-(2,3-difluoro-4-methoxy-phenyl)-1-methyl-imidazole-2-carboxamide formate]  40 nM
5. Cn1c(-c2ccc(OC(F)F)c(F)c2F)cnc1C(=O)Nc1ccc(C(=O)N2CCN(C(=O)C3CCN(CCN)CC3)CC2)c(Cl)c1 [Example 292, N-[4-[4-[1-(2-aminoethyl)piperidine-4-carbonyl]piperazine-1-carbonyl]-3-chloro-phenyl]-5-[4-(difluoromethoxy)-2,3-difluoro-phenyl]-1-methyl-imidazole-2-carboxamide trifluoroacetate]  40 nM
6. Cn1c(-c2ccc(OCF)c(F)c2F)cnc1C(=O)Nc1ccc(C(=O)N2CCC(C(=O)N[C@@H]3CCNC3)CC2)c(Cl)c1 [Example 90, (R)-1-(2-chloro-4-(5-(2,3-difluoro-4-(fluoromethoxy)phenyl)-1-methyl-1H-imidazole-2-carboxamido)benzoyl)-N-(pyrrolidin-3-yl)piperidine-4-carboxamide 2,2,2-trifluoroacetate]  40 nM
7. COc1ccc(-c2cnc(C(=O)Nc3ccc(C(=O)N4CCN(C(=O)[C@H]5CCNC5)CC4)c(Cl)c3)n2C)c(F)c1F [Example 139, N-[3-chloro-4-[4-[(3S)-pyrrolidine-3-carbonyl]piperazine-1-carbonyl]phenyl]-5-(2,3-difluoro-4-methoxy-phenyl)-1-methyl-imidazole-2-carboxamide formate]  40 nM
8. COc1ccc(-c2cnc(C(=O)Nc3ccc(C(=O)N4CCN(C(=O)CCCN)CC4)c(Cl)c3)n2C)c(F)c1F [Example 121, N-[4-[4-(4-aminobutanoyl)piperazine-1-carbonyl]-3-chloro-phenyl]-5-(2,3-difluoro-4-methoxy-phenyl)-1-methyl-imidazole-2-carboxamide; formic acid]  40 nM
9. Cn1c(-c2ccc(OCC#N)c(F)c2Cl)cnc1C(=O)Nc1ccc(C(=O)N2CCN(C(=O)C3(O)CCNCC3)CC2)c(Cl)c1 [Example 251, 5-[2-chloro-4-(cyanomethoxy)-3-fluoro-phenyl]-N-[3-chloro-4-[4-(4-hydroxypiperidine-4-carbonyl)piperazine-1-carbonyl]phenyl]-1-methyl-imidazole-2-carboxamide formate]  50 nM
10. COc1ccc(-c2cnc(C(=O)Nc3ccc(C(=O)N4CCC(C(=O)N5CC(CN)C5)CC4)c(Cl)c3)n2C)c(F)c1F [Example 34, N-[4-[4-[3-(aminomethyl)azetidine-1-carbonyl]piperidine-1-carbonyl]-3-chloro-phenyl]-5-(2,3-difluoro-4-methoxy-phenyl)-1-methyl-imidazole-2-carboxamidetrifluoroacetate]  70 nM
11. Cn1c(-c2ccc(OC(F)F)c(F)c2F)cnc1C(=O)Nc1ccc(C(=O)N2CCC(C(=O)N3CC[C@H](N)C3)CC2)c(Cl)c1 [Example 46, N-[4-[4-[(3S)-3-aminopyrrolidine-1-carbonyl]piperidine-1-carbonyl]-3-chloro-phenyl]-5-[4-(difluoromethoxy)-2,3-difluoro-phenyl]-1-methyl-imidazole-2-carboxamide trifluoroacetate]  70 nM
12. Cn1c(-c2ccc(OC(F)F)cc2F)cnc1C(=O)Nc1ccc(C(=O)N2CCN(C(=O)CC3CNC3)CC2)c(Cl)c1 [Example 178, N-[4-[4-[2-(azetidin-3-yl)acetyl]piperazine-1-carbonyl]-3-chloro-phenyl]-5-[4-(difluoromethoxy)-2-fluoro-phenyl]-1-methyl-imidazole-2-carboxamide formate]  70 nM
13. COc1ccc(-c2cnc(C(=O)Nc3ccc(C(=O)N4CCC(C(=O)N5CC(CCN)C5)CC4)c(Cl)c3)n2C)c(F)c1F [Example 40, N-[4-[4-[3-(2-aminoethyl)azetidine-1-carbonyl]piperidine-1-carbonyl]-3-chloro-phenyl]-5-(2,3-difluoro-4-methoxy-phenyl)-1-methyl-imidazole-2-carboxamide formate]  70 nM
14. COc1ccc(-c2cnc(C(=O)Nc3ccc(C(=O)N4CCN(CC(N)=O)CC4)c(Cl)c3)n2C)c(F)c1F [Example 244, N-[4-[4-(2-amino-2-oxo-ethyl)piperazine-1-carbonyl]-3-chloro-phenyl]-5-(2,3-difluoro-4-methoxy-phenyl)-1-methyl-imidazole-2-carboxamide]  100 nM
15. COc1ccc(-c2cnc(C(=O)Nc3ccc(C(=O)N4CCN(C(=O)C5CC6(CNC6)C5)CC4)c(C)c3)n2C)c(Cl)c1F [Example 119, N-[4-[4-(2-azaspiro[3.3]heptane-6-carbonyl)piperazine-1-carbonyl]-3-methyl-phenyl]-5-(2-chloro-3-fluoro-4-methoxy-phenyl)-1-methyl-imidazole-2-carboxamide; formic acid]  120 nM
16. CC[C@@]1(O)CN[C@H](C(=O)N2CCN(C(=O)c3ccc(NC(=O)c4ncc(-c5ccc(OCC#N)c(F)c5F)n4C)cc3C)CC2)C1 [Example 226, 5-[4-(cyanomethoxy)-2,3-difluoro-phenyl]-N-[4-[4-[(2S,4S)-4-ethyl-4-hydroxy-pyrrolidine-2-carbonyl]piperazine-1-carbonyl]-3-methyl-phenyl]-1-methyl-imidazole-2-carboxamide formate]  130 nM
17. COc1c(F)cc(-c2cnc(C(=O)Nc3ccc(C(=O)N4CCN(C(=O)C5CCNCC5)CC4)c(Cl)c3)n2C)c(F)c1F [Example 168, N-[3-chloro-4-[4-(piperidine-4-carbonyl)piperazine-1-carbonyl]phenyl]-1-methyl-5-(2,3,5-trifluoro-4-methoxy-phenyl)imidazole-2-carboxamide formate]  150 nM
18. COc1ccc(-c2cnc(C(=O)Nc3ccc(C(=O)N4CCN(S(=O)(=O)CCN)CC4)c(Cl)c3)n2C)c(F)c1F [Example 239, N-[4-[4-(2-aminoethylsulfonyl)piper-razine-1-carbonyl]-3-chloro-phenyl]-5-(2,3-difluoro-4-methoxy-phenyl)-1-methyl-imidazole-2-carboxamide]  150 nM
19. COc1ccc(-c2cnc(C(=O)Nc3ccc(C(=O)N4CCN(C(=O)CC5NC(=O)NC5=O)CC4)c(Cl)c3)n2C)c(F)c1F (stereo not drawn) [Example 128, N-[3-chloro-4-[4-[2-(2,5-dioxoimidazolidin-4-yl)acetyl]piperazine-1-carbonyl]phenyl]-5-(2,3-difluoro-4-methoxy-phenyl)-1-methyl-imidazole-2-carboxamide]  270 nM
20. COc1ccc(-c2cnc(C(=O)Nc3ccc(C(=O)N4CCC(C(=O)NCCCC(=O)O)CC4)c(Cl)c3)n2C)c(F)c1F [Example 68, 4-[[1-[2-chloro-4-[[5-(2,3-difluoro-4-methoxy-phenyl)-1-methyl-imidazole-2-carbonyl]amino]benzoyl]piperidine-4-carbonyl]amino]butanoic acid]  2100 nM
21. Cn1c(-c2ccc(F)c(C#N)c2F)cnc1C(=O)Nc1ccc(C(=O)N2CCN(C(=O)C3CCNCC3)CC2)c(Cl)c1 [Example 193, N-[3-chloro-4-[4-(piperidine-4-carbonyl)piperazine-1-carbonyl]phenyl]-5-(3-cyano-2,4-difluoro-phenyl)-1-methyl-imidazole-2-carboxamide formate]  2590 nM

same assay, conditions: Acinetobacter baumannii, ATCC17961, read-out: ATCC 17961 IC90

In order of falling IC90:
1. Cn1c(-c2ccc(OCC#N)c(F)c2F)cnc1C(=O)Nc1ccc(C(=O)N2CCN(CCNCC(N)=O)CC2)c(Cl)c1 [Example 287, N-[4-[4-[2-[(2-amino-2-oxoethyl)amino]ethyl]piper-azine-1-carbonyl]-3-chloro-phenyl]-5-[4-(cyanomethoxy)-2,3-difluoro-phenyl]-1-methyl-imidazole-2-carboxamide formate]  140 nM
2. Cn1c(-c2ccc(OC(F)F)c(F)c2F)cnc1C(=O)Nc1ccc(C(=O)N2CCC(C(=O)N[C@H]3CNC[C@@H]3O)CC2)c(Cl)c1 [Example 93, 1-(2-chloro-4-(5-(4-(difluoromethoxy)-2,3-difluorophenyl)-1-methyl-1H-imidazole-2-carboxamido)benzoyl)-N-((3S,4S)-4-hydroxypyrrolidin-3-yl)piperidine-4-carboxamide formate]  40 nM
3. Cn1c(-c2ccc(OC(F)F)c(F)c2F)cnc1C(=O)Nc1ccc(C(=O)N2CCC(C(=O)NCC3CNC3)CC2)c(Cl)c1 [Example 245, N-(Azetidin-3-ylmethyl)-1-[2-chloro-4-[[5-[4-(difluoromethoxy)-2,3-difluoro-phenyl]-1-methyl-imidazole-2-carbonyl]amino]benzoyl]piperidine-4-carboxamide trifluoroacetate]  30 nM
